# Laboratory results reported in US20240392241A1, “METHOD FOR PRODUCING CELL MASS INCLUDING PITUITARY TISSUE AND CELL MASS” (SUMITOMO CHEMICAL COMPANY, LIMITED, priority 2021, published 2024).
# How the values were obtained:
# [1] = test system: human iPS cells (HC-6 #10 strain); assay: Pituitary organoid differentiation from human iPS cells, phase contrast observation of cell mass (Example 1); type: cell-based; conditions: JNK—IN-8 1 μM from day 0
# Procedure: Human iPS cells (HC-6 #10 strain, obtained from RIKEN) were cultured under feeder-free conditions according to the method described in Scientific Reports, 4, 3594 (2014). As the feeder-free medium, StemFit medium (manufactured by Ajinomoto Co., Inc.) was used and, as the feeder-free scaffold, Laminin 511-E8 (manufactured by Nippi, Inc.) was used.
# As specific maintenance culturing operation, subconfluent human iPS cells (HC-6 #10 strain) were first washed twice with 0.5 mM EDTA/PBS and further treated with 5 mM EDTA/PBS at 37° C. for 10 min. After pipetting, the cells were scraped from the surface of the culture dish and dispersed into single cells. Thereafter, the human iPS cells dispersed into single cells were seeded in a plastic culture dish coated with Laminin 511-E8, and cultured under feeder-free conditions in StemFit medium in the presence of Y-27632 (ROCK inhibiting substance, manufactured by FUJIFILM Wako Pure Chemical Corporation, 10 μM). When a 6-well plate (manufactured by Corning, for cell culturing, culture area 9.5 cm^2) was used as the plastic culture dish, the number of plated cells of the human iPS cells dispersed into single cells was adjusted to 7×10^3. One day after seeding, the entire amount of the medium was changed with StemFit medium free of Y-27632. Thereafter, once in 1-2 days, the entire amount of the medium was changed with StemFit medium free of Y-27632. […]
# [2] = test system: human iPS cells (1231A3 strain); assay: Timing of JNK inhibitor addition in pituitary organoid differentiation, bright field observation (Example 2); type: cell-based; conditions: observed day 28
# Procedure: In Example 2, according to step shown in FIG. 2A, a cell population including cells that constitute pituitary tissue was produced. Specifically, human iPS cells (1231A3 strain, obtained from RIKEN) were cultured under feeder-free conditions according to the method described in Scientific Reports, 4, 3594 (2014). As the feeder-free medium, StemFit medium was used and, as the feeder-free scaffold, Laminin 511-E8 was used.
# Differentiation induction was performed under the same conditions as in Example 1 except for the condition of adding a JNK inhibitor, compared to the conditions of Example 1. As the condition for adding JNK inhibitor, conditions including addition of JNK—IN-8 (manufactured by Merck, 1 μM), which is a c-Jun N-terminal kinase (JNK) inhibitor, on days 0, 2, 6, 10, and 13 after the start of differentiation induction were compared with conditions without addition of JNK inhibitor. When the JNK inhibitor is added on days 2, 6, 10, and 13 after the start of differentiation induction, 2 μM was added to the medium when adding or replacing the medium, so that the final concentration in the well would be 1 μM.
# On day 28 after the start of suspension culture, bright field observation by polarized illumination was performed using an inverted microscope (manufactured by KEYENCE CORPORATION, BIOREVO BZ-X800) (FIG. 2B).
compound,measurement,setting,value
"Cc1cc(NC(=O)c2cccc(NC(=O)/C=C/CN(C)C)c2)ccc1Nc1nccc(-c2cccnc2)n1 [JNK—IN-8, (E)-3-(4-(dimethylamino)but-2-enamido)-N-(3-methyl-4-((4-(pyridin-3-yl)pyrimidin-2-yl)amino)phenyl)benzamide]","differentiation efficiency (surface covered with nonneural epithelial/placode-like tissue, unintended cells suppressed)","[1]; day 28, vs no addition",improved
same,"size of the cell mass, smaller in diameter than without addition of JNK inhibitor",[1]; day 28 of suspension culture,about 100 μm
same,formation of nonneural epithelium/pituitary vs no addition,"[2]; JNK—IN-8 1 μM added on days 0, 2, and 6 after start of differentiation induction",formed more efficiently
same,formation of nonneural epithelium/pituitary vs no addition,[2]; JNK—IN-8 1 μM added on days 10 and 13 after start of differentiation,no difference
